Reference: patent US20230189821A1, “PESTICIDAL COMPOSITIONS WITH ENHANCED PHYSICAL CHARACTERISTICS” (Terramera, Inc., priority 2020, published 2023)

Experiment: Melting point of oil/aliphatic acid mixtures by differential scanning calorimeter (DSC)
Type: physicochemical
Procedure: Eleven exemplary pesticidal compositions, each comprising a different mixture ratio of neem oil and octanoic acid, were prepared according to the following description. Each composition comprised a combined 10-20 mg of cold-pressed neem oil and octanoic acid. The neem oil and octanoic acid were passively mixed by commingling in liquid phase in the testing vessel (an aluminum pan with an aluminum cap) at a temperature above each ingredient's melting point. Mixture ratios were determined by weight—e.g. a 10 mg mixture in 60:40 ratio would comprise 6 mg of neem oil and 4 mg of octanoic acid. The mixture's melting point was then measured by a differential scanning calorimeter (DSC), and particularly by a TA Instruments® DSC Q2000™ differential scanning calorimeter. The following method was used for DSC measurement of each mixture: the mixture was equilibrated at 40° C., then isothermally held for 15 minutes, then equilibrated at −30° C., and then ramped at 5° C./minute to 70° C. […]
Eleven exemplary pesticidal compositions, each comprising a different mixture ratio of palm oil and octanoic acid, were prepared according to the following description. […] Mixture ratios were determined by weight—e.g. a 10 mg mixture in 60:40 ratio would comprise 6 mg of palm oil and 4 mg of octanoic acid. The mixture's melting point was then measured by differential scanning calorimeter. […]
Eleven exemplary pesticidal compositions, each comprising a different mixture ratio of coconut oil and octanoic acid, were prepared according to the following description. […] Mixture ratios were determined by weight—e.g. a 10 mg mixture in 60:40 ratio would comprise 6 mg of coconut oil and 4 mg of octanoic acid. The mixture's melting point was then measured by differential scanning calorimeter. […]
Eleven exemplary pesticidal compositions, each comprising a different mixture ratio of karanja oil and octanoic acid, were prepared according to the following description. […] Mixture ratios were determined by weight—e.g. a 10 mg mixture in 60:40 ratio would comprise 6 mg of karanja oil and 4 mg of octanoic acid. […]

CCCCCCCCCC(=O)O [decanoic acid]
Melting Point: about 11.36 °C

CCCCCCCC/C=C\CCCCCCCC(=O)O [oleic acid]
Melting Point: about 11.31 °C

CC/C=C/CC(=O)O [trans-3 hexenoic acid]
Melting Point: about 11.36 °C
